Experimental data taken from the METLIN SMRT retention time set (Domingo-Almenara et al. 2019).

Test: gradient 5% acetonitrile 3 min, to 50% in 2 min, to 85% in 15 min, held 3 min, 100 µL/min
Details: column: Zorbax Extend-C18 2.1 x 50 mm; eluents: water / acetonitrile, 0.1% formic acid
Outline: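 Retention times of pure standards were taken from adduct peaks that were selected by computer and manually inspected. Over 3 months, mixtures of ~100 molecules were run by HPLC–quadrupole time-of-flight mass spectrometry in positive and negative ionization mode. The Zorbax Extend-C18 column (2.1 × 50 mm, 1.8 μm) ran at 100 μL/min in water and acetonitrile, each containing 0.1% formic acid, with 40 μL dead volume and 900 μL dwell volume.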

SMILES	RP-LC retention time [s]
N#CCc1ccc(NC(=O)C2CCCN(S(=O)(=O)Cc3ccccc3Cl)C2)cc1 (stereo unspecified)	905
O=C(NCc1ccccn1)c1scc(-c2ccc(F)cc2)c1-n1cccc1	821
CN1C(=O)c2cccn2CC1C(=O)Nc1ccccc1 (stereo unspecified)	681
O=C(Cn1nc2c3c4c(sc3ncn2c1=O)CCCC4)N1CCc2ccccc2C1	1140
COC(=O)C(C)NC(=O)NCc1cccn1Cc1ccccc1 (stereo unspecified)	794
O=C(CN1CCN(Cc2ccccc2F)C1=O)NCc1cccc(Cl)c1	831
CC(C)Cn1cc(CCNS(=O)(=O)c2ccc(Cl)s2)c2cccnc21	987
Nc1cc(C2CCN(S(=O)(=O)Cc3cccc(F)c3)CC2)no1	742
Cc1noc(C)c1-c1ccc(S(=O)(=O)NC2CCC(C)CC2)cc1 (stereo unspecified)	1030
CCc1ccccc1N1C(=O)CN(S(=O)(=O)CC)CC1(C)C(=O)NCc1ccc(F)cc1 (stereo unspecified)	892
Cc1ccc(-c2noc(Cn3c(=O)n(-c4ccccc4F)c(=O)c4sccc43)n2)cc1C	1090
O=C(c1cccs1)N1CCCC(c2nnc(-c3ccccc3)o2)C1 (stereo unspecified)	805
Cc1ccc(F)c(Nc2ncccc2S(N)(=O)=O)c1	826
O=C(CCc1nnn2c1CN(C(=O)Nc1cccc(F)c1)CC2)NC1CC1	664
CCC(C)NC(=O)Cn1c(=O)cc(-c2nc(C)no2)c2ccccc21 (stereo unspecified)	755
O=C(CN1CCN(Cc2ccccc2)CC1)Nc1nc(-c2ccccc2)cs1	700
COCCCNC(=O)c1ccc(-c2ccc(N3CCSCC3)nc2)cc1	646
CCN1CCN(S(=O)(=O)c2cccc(-c3nc(-c4ccc(C)cc4)no3)c2)CC1	786
CCN1C(=O)COc2cc(-c3noc(C(=O)NCCC4=CCCCC4)n3)ccc21	1120
COc1ccc(N2CCN(C(=O)C3(c4ccc(NC(=O)C5CC5)cc4)CCC3)CC2)cc1	816
CCc1ccccc1NS(=O)(=O)c1cc2n(c1)CCN(CC)C2=O	771
COc1ccc(NC(=O)C2CCN(S(=O)(=O)c3ccc4c(c3)NC(=O)C(C)O4)CC2)cc1Cl (stereo unspecified)	853
Cc1cc(C(=O)N2CCC(c3noc(-c4ccncc4)n3)C2)nn1C (stereo unspecified)	661

SMILES	RP-LC retention time [s]
CC(=O)N1CCc2nn(CC(=O)N3CCN(c4ccccc4F)CC3)c(=O)cc2C1	652
Fc1ccc(-c2nc3cnccn3c2Nc2ccc3c(c2)OCCO3)cc1	818
COc1ccc(Cn2nc3c(S(=O)(=O)N4CCCC4)cccn3c2=O)cc1	804
CCS(=O)(=O)N1CC(=O)N(c2cccc(C)c2C)C(C)(C(=O)NCc2ccccc2)C1 (stereo unspecified)	807
CCc1nccn1Cc1noc(-c2ccc(C)cc2)n1	648
O=S(=O)(c1ccccc1)N1CC[C@@H]2COCCN(Cc3ccccc3)[C@@H]2C1	675
O=C(NCC1CC1)c1cn(-c2ccc(S(=O)(=O)N3CCCC3)cn2)cn1	762
CCN(CC)C(=O)c1ccc(-c2nc3cc(NS(=O)(=O)c4cc(F)ccc4F)ccc3n2C)cc1	704
O=S(=O)(Cc1ccccc1F)N1CCOc2ccc(N3CCOCC3)cc2C1	861
CC(C)OCCCNC(=O)C(C)n1c(=O)c(C(F)(F)F)nc2ccccc21 (stereo unspecified)	972
CCCNC(=O)c1ccc2c(c1)N(C)C(=O)CS2	843
CN(CC1CCOCC1)C(=O)Cc1ccccc1	695
Cn1c(C(=O)N2CCC(C(=O)NCc3ccccc3Cl)CC2)cc2oc3ccccc3c21	978
COCc1cc(=O)n(CC(=O)Nc2ccc(C)cc2C)c(N2CCOCC2)n1	844
CCCCN(C)C(=O)c1cn2cc(C)ccc2n1	608
Cc1ccc(NC(=O)Cn2cnc3nc4c(cc3c2=O)CCCC4)c(C)c1	734
CCc1ccc(NC(=O)C2CCN(S(C)(=O)=O)c3cc(Cl)ccc3O2)cc1 (stereo unspecified)	944
Cc1cc(NC(=O)C(=O)NCCc2ccc(S(N)(=O)=O)cc2)no1	613
CCN1CCN(c2ccc(-c3nc(-c4ccc(OC)cc4)no3)cn2)CC1	696
Cc1cccc(N2CCN(CC(O)COc3ccc(Cl)cc3)CC2)c1 (stereo unspecified)	846
CCOc1ccc(CNC(=O)c2sccc2S(=O)(=O)N(C)c2ccc(OCC)cc2)cc1	1170
CCc1nc2c(=O)n(CC(=O)N3CCCCCC3)nc(C)c2s1	706
Cc1c(-c2ccnc(N3CCOCC3)n2)cnc2nc(-c3ccc(Cl)cc3)nn12	1030

SMILES	RP-LC retention time [s]
COCC(=O)N1N=C(c2cccc(NS(C)(=O)=O)c2)CC1c1ccccc1F (stereo unspecified)	718
CC(C)n1c(CN2CCCC2)nc2cc(NC(=O)c3ccco3)ccc21	610
Cc1cc(C)c(S(=O)(=O)N2CCC(c3cc4n(n3)CCCN(C)C4=O)CC2)cc1C	888
COc1ccc(N2CCN(c3cc(C(=O)O)c4cc(NC(=O)CC(C)C)ccc4n3)CC2)cc1	655
COc1ccc(C(=O)Nc2cccc(-c3csc(C)n3)c2)nn1	586
C=CCc1c(C)c(C#N)c2nc3ccccc3n2c1NCCOCCO	589
CCOCCCNC(=O)N1CC(Oc2ccc(-c3nc(C)no3)cc2)C1	724
COCCCNC(=O)c1c(C)sc2ccn(Cc3ccc(F)cc3)c(=O)c12	746
COCCCNC(=O)CCc1nnc2ccc(-c3ccc(C)c(C)c3)nn12	718
O=C(NC1CCCC1)C1CCCCN1S(=O)(=O)c1ccc(Br)cc1 (stereo unspecified)	1040
COc1ccc(NC(=O)Cn2nc3nc(N4CCCC(C)C4)ccn3c2=O)cc1F (stereo unspecified)	775
CCCn1ccc2oc(C)c(C(=O)N3CCN(CC(C)C)CC3)c2c1=O	575
COc1ccc(-c2noc(C3CCCN3C(=O)c3ccc(C)cc3)n2)cc1 (stereo unspecified)	1010
CC(NC(=O)c1cc(-c2ccc(Cl)cc2)cn1C)c1cccnc1 (stereo unspecified)	726
Cc1ccccc1N1C(=O)CC(N2CCC(C(N)=O)CC2)C1=O (stereo unspecified)	580
Cc1nc2ccc(C(=O)NC3CCN(C)CC3)cc2nc1C	566
Cc1cccc2sc(N(CCN(C)C)C(=O)c3ccc(S(=O)(=O)N(C)C)cc3)nc12	598
CCOC(=O)C1CCCN(C(=O)C2CCN(c3cc(N4CCCCC4)ncn3)CC2)C1 (stereo unspecified)	666
COCCCNC(=O)N1CCCC1c1nc(-c2cccc(C)c2)no1 (stereo unspecified)	810
CC(=O)c1cccc(Nc2c(C(=O)N3CCCC3)cnc3nc(C)ccc23)c1	587
CC1Cc2ccccc2N1S(=O)(=O)CCCOc1ccc2c(c1)OCO2 (stereo unspecified)	1020
Brc1cccc(-c2nnc(Cc3nc(-c4ccc5c(c4)OCO5)no3)o2)c1	1060
CCCn1c(C)cnc1C1CN(S(=O)(=O)c2ccc(F)c(F)c2)C1	695

SMILES	RP-LC retention time [s]
CCC(Oc1ccc(=O)n(-c2ccc(F)cc2)n1)C(=O)NCc1ccco1 (stereo unspecified)	733
CCn1ncc(N2CCC(NC(=O)C(C)(C)C)CC2)cc1=O	576
CCN1C(=O)COc2ccc(-c3noc(Cc4ccc(OC)c(OC)c4)n3)cc21	923
O=C(CCNc1c(-c2cccc(F)c2)nc2cnccn12)NCc1ccccc1Cl	780
COc1cc(N2CC(CNS(C)(=O)=O)OC2=O)cc(OC)c1OC (stereo unspecified)	593
CCN(Cc1ccccc1)C(=O)C1CCN(S(=O)(=O)c2ccc3c(c2)NC(=O)CO3)CC1	852
COC(=O)c1cc(C(=O)OC)cc(-n2ccc3nc(C)c(C(=O)OC)cc3c2=O)c1	844
O=C(NCCCN1CCCC1=O)c1ccc2ccnc(N3CCN(c4ccc(F)cc4)CC3)c2c1	647
O=S(=O)(NC1CCCCCC1)c1cc(-c2cc(C(F)(F)F)on2)cs1	1200
CN(CCCNC(=O)c1ccc2c(c1)N(C)C(=O)C1CCCCN21)Cc1ccccc1 (stereo unspecified)	643
CCCCN(CCCC)C(=O)C1CCN(S(=O)(=O)c2ccc3c(c2)CCCC(=O)N3)CC1	905
NC(=O)c1cnc(-c2ccccc2)n(CC(=O)Nc2ccccc2Br)c1=O	740
CCCN(C(C)=O)c1nc(-c2ccc(Br)cc2)cs1	1240
CCn1nccc1C(=O)N1CCCC1c1ccc(OC)cc1 (stereo unspecified)	772
Cc1ccc(C(=O)N2CCn3c(nnc3C(C)C)C2)s1	625
O=C(Nc1ncn[nH]1)c1ccccc1	646
Cc1nnc2ccc(S(=O)(=O)N(Cc3cccc(F)c3)c3ccccc3)cn12	866
CCOC(=O)C(C)Oc1cccc2c(=O)n(CC(=O)Nc3ccc([N+](=O)[O-])cc3)ccc12 (stereo unspecified)	842
Clc1ccc(C2Cn3nnc(-c4nc(-c5ccncc5)no4)c3CO2)cc1 (stereo unspecified)	1000
CC(=O)Nc1ccc(-c2noc(C3CCCN(C(=O)c4ccoc4)C3)n2)cc1 (stereo unspecified)	731
CC1(C)C(=O)Nc2ccc(S(=O)(=O)N3CCC(c4noc(-c5ccncc5)n4)C3)cc21 (stereo unspecified)	700
Cc1cc([N+](=O)[O-])ccc1NC(=O)C1COc2ccccc2O1 (stereo unspecified)	920
